Measured values reported in patent EP4722212A1, “NOVEL COMPOUND FOR INHIBITING PROTEIN KINASES AND PHARMACEUTICAL COMPOSITION COMPRISING SAME” (Magicbullettherapeutics Co., Ltd., priority 2023, dated 2024).
Read-outs that look alike come from different tables or passages of the source.

Experiments:
Experiment in all cases: Kinase panel
Type in all cases: biochemical
CAMK2A = CAMK2A (Homo sapiens, UniProt Q9UQM7); conditions: read-out: residual enzyme activity
Description: (§1) To measure the inhibitory activity of protein kinases against the compounds of the present invention, a biochemical assay was performed using a full kinase panel. The inhibitory efficacy of kinases was measured when Example compounds 8 and 51 were treated at a single concentration of 1 µM, and residual enzyme activity values were calculated. Kinases were identified when the calculated residual enzyme activity values were 40% or less, i.e., inhibited by 60% or more.

CAMK2D = CAMK2D (Homo sapiens, UniProt Q13557); conditions: read-out: residual enzyme activity
Description: as §1

CDK14/CYCLIN Y (PFTK1) = CDK14/CYCLIN Y (PFTK1) (Homo sapiens, UniProt O94921); conditions: read-out: residual enzyme activity
Description: as §1

CDK2/CYCLIN E = CDK2/CYCLIN E (Homo sapiens, UniProt P24941); conditions: read-out: residual enzyme activity
Description: as §1

CDK6/CYCLIN D1 = CDK6/CYCLIN D1 (Homo sapiens, UniProt Q00534); conditions: CDK6/cyclin D1, 1 µM; read-out: residual enzyme activity
CDK6/CYCLIN D1, sequence (Q00534 whole entry, species assumed): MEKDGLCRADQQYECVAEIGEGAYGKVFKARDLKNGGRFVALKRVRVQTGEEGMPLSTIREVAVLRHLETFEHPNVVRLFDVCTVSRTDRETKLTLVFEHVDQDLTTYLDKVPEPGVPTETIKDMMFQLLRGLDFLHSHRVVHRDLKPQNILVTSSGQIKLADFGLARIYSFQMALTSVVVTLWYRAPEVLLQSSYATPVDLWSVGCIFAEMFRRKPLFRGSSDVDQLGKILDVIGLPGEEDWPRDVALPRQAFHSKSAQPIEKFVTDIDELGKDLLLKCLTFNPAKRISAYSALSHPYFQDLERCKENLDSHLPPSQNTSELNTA
CDK6/CYCLIN D1, sequence (P24385 whole entry partner, species assumed): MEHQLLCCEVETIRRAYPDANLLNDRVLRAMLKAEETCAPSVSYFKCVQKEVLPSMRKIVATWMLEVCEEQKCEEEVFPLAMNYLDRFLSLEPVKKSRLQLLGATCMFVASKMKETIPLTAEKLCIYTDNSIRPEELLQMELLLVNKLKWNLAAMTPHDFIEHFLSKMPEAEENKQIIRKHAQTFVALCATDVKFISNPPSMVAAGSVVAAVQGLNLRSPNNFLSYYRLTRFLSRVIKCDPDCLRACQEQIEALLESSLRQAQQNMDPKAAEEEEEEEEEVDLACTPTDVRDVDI
Description: as §1

CLK3 = CLK3 (Homo sapiens, UniProt P49761); conditions: CLK3, 1 µM; read-out: residual enzyme activity
Description: as §1

DDR1 = DDR1 (Homo sapiens, UniProt Q08345); conditions: DDR1, 1 µM; read-out: residual enzyme activity
Description: as §1

DMPK = DMPK (Homo sapiens, UniProt Q09013); conditions: read-out: residual enzyme activity
Description: as §1

EPHB2 = EPHB2 (Homo sapiens, UniProt P29323); conditions: EPHB2, 1 µM; read-out: residual enzyme activity
Description: as §1

FES/FPS = FES/FPS (Homo sapiens, UniProt P07332); conditions: read-out: residual enzyme activity
FES/FPS, sequence (P07332 whole entry): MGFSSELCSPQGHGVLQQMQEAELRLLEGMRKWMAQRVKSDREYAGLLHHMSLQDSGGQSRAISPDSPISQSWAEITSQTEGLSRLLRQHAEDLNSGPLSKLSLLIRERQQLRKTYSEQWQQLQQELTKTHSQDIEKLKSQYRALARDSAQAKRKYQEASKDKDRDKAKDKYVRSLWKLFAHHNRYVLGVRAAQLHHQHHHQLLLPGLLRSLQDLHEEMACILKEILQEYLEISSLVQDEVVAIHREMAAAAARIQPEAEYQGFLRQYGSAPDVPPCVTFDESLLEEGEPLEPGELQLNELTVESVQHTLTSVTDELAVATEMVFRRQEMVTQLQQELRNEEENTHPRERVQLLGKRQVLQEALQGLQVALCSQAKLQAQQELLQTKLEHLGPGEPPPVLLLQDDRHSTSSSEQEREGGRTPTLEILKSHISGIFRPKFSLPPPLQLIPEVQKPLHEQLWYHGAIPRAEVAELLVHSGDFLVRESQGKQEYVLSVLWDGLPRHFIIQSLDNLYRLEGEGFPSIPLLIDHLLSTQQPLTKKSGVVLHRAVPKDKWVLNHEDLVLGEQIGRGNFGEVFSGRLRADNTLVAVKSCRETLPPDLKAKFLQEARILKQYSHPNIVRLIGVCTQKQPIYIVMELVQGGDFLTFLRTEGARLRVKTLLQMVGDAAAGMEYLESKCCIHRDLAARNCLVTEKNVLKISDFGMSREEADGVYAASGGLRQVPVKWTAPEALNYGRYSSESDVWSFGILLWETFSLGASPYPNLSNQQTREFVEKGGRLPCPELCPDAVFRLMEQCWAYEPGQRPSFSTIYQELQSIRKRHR
Description: as §1

FGFR4 = FGFR4 (Homo sapiens, UniProt P22455); conditions: FGFR4, 1 µM; read-out: residual enzyme activity
Description: as §1

HIPK2 = HIPK2 (Homo sapiens, UniProt Q9H2X6); conditions: HIPK2, 1 µM; read-out: residual enzyme activity
Description: as §1

KSR1 = KSR1 (Homo sapiens, UniProt Q8IVT5); conditions: KSR1, 1 µM; read-out: residual enzyme activity
Description: as §1

MAK = MAK (Homo sapiens, UniProt P20794); conditions: read-out: residual enzyme activity
Description: as §1

MNK2 = MNK2 (Homo sapiens, UniProt Q9HBH9); conditions: MNK2, 1 µM; read-out: residual enzyme activity
Description: as §1

NEK3 = NEK3 (Homo sapiens, UniProt P51956); conditions: NEK3, 1 µM; read-out: residual enzyme activity
Description: as §1

NEK6 = NEK6 (Homo sapiens, UniProt Q9HC98); conditions: NEK6, 1 µM; read-out: residual enzyme activity
NEK6, sequence (Q9HC98 whole entry, species assumed): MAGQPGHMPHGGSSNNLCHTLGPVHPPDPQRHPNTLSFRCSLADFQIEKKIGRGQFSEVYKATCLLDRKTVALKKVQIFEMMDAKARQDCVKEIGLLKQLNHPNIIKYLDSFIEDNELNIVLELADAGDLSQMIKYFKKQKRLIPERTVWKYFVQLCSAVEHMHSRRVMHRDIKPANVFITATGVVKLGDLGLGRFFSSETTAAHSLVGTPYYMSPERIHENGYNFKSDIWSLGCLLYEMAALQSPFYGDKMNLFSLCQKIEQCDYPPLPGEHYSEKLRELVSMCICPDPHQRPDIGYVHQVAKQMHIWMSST
Description: as §1

P38G = P38G (Homo sapiens, UniProt P53778); conditions: read-out: residual enzyme activity
Description: as §1

PAK3 = PAK3 (Homo sapiens, UniProt O75914); conditions: PAK3, 1 µM; read-out: residual enzyme activity
Description: as §1

PAK4 = PAK4 (Homo sapiens, UniProt O96013); conditions: PAK4, 1 µM; read-out: residual enzyme activity
Description: as §1

PKCA = PKCA (Homo sapiens, UniProt P17252); conditions: read-out: residual enzyme activity
Description: as §1

PKN1/PRK1 = PKN1/PRK1 (Homo sapiens, UniProt Q16512); conditions: PKN1/PRK1, 1 µM; read-out: residual enzyme activity
Description: as §1

PKN2/PRK2 = PKN2/PRK2 (Homo sapiens, UniProt Q16513); conditions: PKN2/PRK2, 1 µM; read-out: residual enzyme activity
PKN2/PRK2, sequence (Q16513 whole entry): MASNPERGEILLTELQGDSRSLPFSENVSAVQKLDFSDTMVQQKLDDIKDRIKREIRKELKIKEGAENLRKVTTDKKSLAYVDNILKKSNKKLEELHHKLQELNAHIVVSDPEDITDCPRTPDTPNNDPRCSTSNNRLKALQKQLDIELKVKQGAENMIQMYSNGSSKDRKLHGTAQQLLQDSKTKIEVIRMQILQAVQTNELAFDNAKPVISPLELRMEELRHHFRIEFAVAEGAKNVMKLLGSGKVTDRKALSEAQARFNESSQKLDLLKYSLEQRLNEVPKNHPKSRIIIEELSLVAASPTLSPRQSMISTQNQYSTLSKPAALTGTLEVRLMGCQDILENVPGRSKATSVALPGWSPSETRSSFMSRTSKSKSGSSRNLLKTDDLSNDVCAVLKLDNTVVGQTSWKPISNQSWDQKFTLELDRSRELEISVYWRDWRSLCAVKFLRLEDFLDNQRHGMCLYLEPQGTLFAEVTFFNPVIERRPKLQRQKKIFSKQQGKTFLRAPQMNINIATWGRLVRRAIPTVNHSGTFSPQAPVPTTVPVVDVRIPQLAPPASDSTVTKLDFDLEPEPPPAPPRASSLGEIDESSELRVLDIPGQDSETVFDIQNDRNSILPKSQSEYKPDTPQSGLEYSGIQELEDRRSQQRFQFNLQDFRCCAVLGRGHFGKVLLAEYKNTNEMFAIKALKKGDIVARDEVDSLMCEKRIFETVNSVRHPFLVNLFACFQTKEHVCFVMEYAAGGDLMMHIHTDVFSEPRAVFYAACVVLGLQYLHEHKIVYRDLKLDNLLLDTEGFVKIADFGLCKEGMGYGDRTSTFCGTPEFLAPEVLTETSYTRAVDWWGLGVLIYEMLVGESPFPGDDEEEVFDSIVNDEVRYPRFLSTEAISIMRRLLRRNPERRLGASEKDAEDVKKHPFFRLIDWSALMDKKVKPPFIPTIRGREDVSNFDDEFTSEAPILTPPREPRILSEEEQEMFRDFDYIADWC
Description: as §1

PKN3/PRK3 = PKN3/PRK3 (Homo sapiens, UniProt Q6P5Z2); conditions: PKN3/PRK3, 1 µM; read-out: residual enzyme activity
Description: as §1

PRKX = PRKX (Homo sapiens, UniProt P51817); conditions: read-out: residual enzyme activity
Description: as §1

ROCK1 = ROCK1 (Homo sapiens, UniProt Q13464); conditions: ROCK1, 1 µM; read-out: residual enzyme activity
Description: as §1

SGK2 = SGK2 (Homo sapiens, UniProt Q9HBY8); conditions: SGK2, 1 µM; read-out: residual enzyme activity
Description: as §1

SYK = SYK (Homo sapiens, UniProt P43405); conditions: read-out: residual enzyme activity
Description: as §1

TGFBR2 = TGFBR2 (Homo sapiens, UniProt P37173); conditions: TGFBR2, 1 µM; read-out: residual enzyme activity
Description: as §1

TNK1 = TNK1 (Homo sapiens, UniProt Q13470); conditions: TNK1, 1 µM; read-out: residual enzyme activity
TNK1, sequence (Q13470 whole entry, species assumed): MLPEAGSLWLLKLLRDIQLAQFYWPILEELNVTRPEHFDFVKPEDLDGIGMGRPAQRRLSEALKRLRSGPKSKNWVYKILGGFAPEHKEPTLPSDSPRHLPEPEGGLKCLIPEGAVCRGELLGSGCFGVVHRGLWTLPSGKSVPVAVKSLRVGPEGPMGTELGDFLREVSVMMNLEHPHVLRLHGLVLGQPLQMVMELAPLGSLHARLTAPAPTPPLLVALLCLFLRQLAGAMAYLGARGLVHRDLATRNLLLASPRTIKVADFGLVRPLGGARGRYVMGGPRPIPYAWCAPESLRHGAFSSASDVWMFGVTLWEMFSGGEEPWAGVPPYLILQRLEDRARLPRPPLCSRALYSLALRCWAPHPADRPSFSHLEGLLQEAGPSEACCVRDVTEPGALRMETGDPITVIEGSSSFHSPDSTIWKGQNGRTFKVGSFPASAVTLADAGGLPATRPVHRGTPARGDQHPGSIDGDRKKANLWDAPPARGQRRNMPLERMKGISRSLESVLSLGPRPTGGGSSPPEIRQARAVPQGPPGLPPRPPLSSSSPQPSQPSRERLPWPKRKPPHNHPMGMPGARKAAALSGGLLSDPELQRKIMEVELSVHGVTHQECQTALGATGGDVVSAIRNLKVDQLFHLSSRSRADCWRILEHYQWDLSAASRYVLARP
Description: as §1

TSSK2 = TSSK2 (Homo sapiens, UniProt Q96PF2); conditions: TSSK2, 1 µM; read-out: residual enzyme activity
Description: as §1

TTBK1 = TTBK1 (Homo sapiens, UniProt Q5TCY1); conditions: TTBK1, 1 µM; read-out: residual enzyme activity
Description: as §1

WEE1 = WEE1 (Homo sapiens, UniProt P30291); conditions: WEE1, 1 µM; read-out: residual enzyme activity
Description: as §1

ZAP70 = ZAP70 (Homo sapiens, UniProt P43403); conditions: ZAP70, 1 µM; read-out: residual enzyme activity
ZAP70, sequence (P43403 whole entry, species assumed): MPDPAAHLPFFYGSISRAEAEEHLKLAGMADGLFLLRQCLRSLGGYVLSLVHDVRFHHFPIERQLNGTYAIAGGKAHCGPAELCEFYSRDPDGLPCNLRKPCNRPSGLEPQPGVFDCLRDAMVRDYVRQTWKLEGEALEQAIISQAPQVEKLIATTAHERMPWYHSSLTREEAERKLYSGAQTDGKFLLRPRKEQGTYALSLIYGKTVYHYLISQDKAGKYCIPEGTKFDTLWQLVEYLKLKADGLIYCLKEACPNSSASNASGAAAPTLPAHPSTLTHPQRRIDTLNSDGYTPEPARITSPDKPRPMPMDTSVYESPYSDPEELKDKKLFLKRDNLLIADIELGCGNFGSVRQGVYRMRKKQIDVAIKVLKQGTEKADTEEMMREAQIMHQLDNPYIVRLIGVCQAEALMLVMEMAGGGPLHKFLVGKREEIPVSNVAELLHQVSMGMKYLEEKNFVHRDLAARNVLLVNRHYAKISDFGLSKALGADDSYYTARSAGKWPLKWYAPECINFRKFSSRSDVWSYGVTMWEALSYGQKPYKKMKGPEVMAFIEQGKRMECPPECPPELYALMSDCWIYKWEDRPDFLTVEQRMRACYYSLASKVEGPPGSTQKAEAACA
Description: as §1

| Structure (SMILES) | remaining activity at 1 µM (CDK14/CYCLIN Y (PFTK1)) [%] | remaining activity at 1 µM (CDK2/CYCLIN E) [%] | remaining activity at 1 µM (CDK6/CYCLIN D1) [%] | remaining activity at 1 µM (CLK3) [%] | remaining activity at 1 µM (DDR1) [%] | remaining activity at 1 µM (DMPK) [%] | remaining activity at 1 µM (EPHB2) [%] | remaining activity at 1 µM (FES/FPS) [%] | remaining activity at 1 µM (FGFR4) [%] | remaining activity at 1 µM (HIPK2) [%] | remaining activity at 1 µM (KSR1) [%] | remaining activity at 1 µM (MAK) [%] | remaining activity at 1 µM (MNK2) [%] | remaining activity at 1 µM (NEK3) [%] | remaining activity at 1 µM (NEK6) [%] | remaining activity at 1 µM (PAK3) [%] | remaining activity at 1 µM (PAK4) [%] | remaining activity at 1 µM (PKCA) [%] | remaining activity at 1 µM (PKN1/PRK1) [%] | remaining activity at 1 µM (PKN2/PRK2) [%] | further results |
| --- | --- | --- | --- | --- | --- | --- | --- | --- | --- | --- | --- | --- | --- | --- | --- | --- | --- | --- | --- | --- | --- |
| Cc1cn(-c2cc(C(=O)Nc3ccc(C)c(N4Cc5cnc(NC6CC6)nc5C5(CC5)C4=O)c3)cc(C(F)(F)F)c2)cn1 [Compound 8, N-(3-(2'-(cyclopropylamino)-7'-oxo-5'H-spiro[cyclopropane-1,8'-pyrido[4,3-d]pyrimidine]-6'(7'H)-yl)-4-methylphenyl)-3-(4-methyl-1H-imidazol-1-yl)-5-(trifluoromethyl)benzamide] | > 40 | > 40 | > 40 | > 40 | ≤ 40 | > 40 | ≤ 40 | ≤ 40 | ≤ 40 | > 40 | > 40 | > 40 | > 40 | > 40 | > 40 | > 40 | > 40 | > 40 | > 40 | > 40 | remaining activity at 1 µM (CAMK2A; CAMK2A): > 40%; remaining activity at 1 µM (CAMK2D; CAMK2D): > 40%; remaining activity at 1 µM (P38G; P38G): > 40%; remaining activity at 1 µM (PKN3/PRK3): > 40%; remaining activity at 1 µM (PRKX): > 40%; remaining activity at 1 µM (ROCK1): > 40%; remaining activity at 1 µM (SGK2): > 40%; remaining activity at 1 µM (SYK): > 40%; remaining activity at 1 µM (TGFBR2): > 40%; remaining activity at 1 µM (TNK1): ≤ 40%; remaining activity at 1 µM (TSSK2): > 40%; remaining activity at 1 µM (TTBK1): > 40%; remaining activity at 1 µM (WEE1): > 40%; remaining activity at 1 µM (ZAP70): > 40% |
| Cc1ccc(Nc2ncc3c(n2)C2(CC2)C(=O)N(c2cc(NC(=O)c4cccc(C(F)(F)F)c4)ccc2C)C3)cn1 [Compound 51, N-(4-methyl-3-(2'-((6-methylpyridin-3-yl)amino)-7'-oxo-5'H-spiro[cyclopropane-1,8'-pyrido[4,3-d]pyrimidine]-6'(7'H)-yl)phenyl)-3-(trifluoromethyl)benzamide] | > 40 | > 40 | > 40 | > 40 | ≤ 40 | > 40 | ≤ 40 | ≤ 40 | ≤ 40 | > 40 | > 40 | > 40 | > 40 | > 40 | > 40 | > 40 | > 40 | > 40 | > 40 | > 40 | remaining activity at 1 µM (CAMK2A; CAMK2a): > 40%; remaining activity at 1 µM (CAMK2D; CAMK2d): > 40%; remaining activity at 1 µM (P38G; P38g): > 40%; remaining activity at 1 µM (PKN3/PRK3): > 40%; remaining activity at 1 µM (PRKX): > 40%; remaining activity at 1 µM (ROCK1): > 40%; remaining activity at 1 µM (SGK2): > 40%; remaining activity at 1 µM (SYK): ≤ 40%; remaining activity at 1 µM (TGFBR2): > 40%; remaining activity at 1 µM (TNK1): ≤ 40%; remaining activity at 1 µM (TSSK2): > 40%; remaining activity at 1 µM (TTBK1): > 40%; remaining activity at 1 µM (WEE1): > 40%; remaining activity at 1 µM (ZAP70): > 40% |
